Source: patent US11806393B2, “Flavivirus peptide sequences, epitopes, and methods and uses thereof” (priority 2017, dated 2023)

Legend:
Format in all cases: cell-based, mouse
[1] = tested on: CD8+ T cells; experiment: IFNγ ELISPOT, ZIKV-infected Ifnar-/- HLA-B*0702 transgenic mice; settings: HLA-B*0702 mice; for SFC/10^6 CD8+ T cells, FSS13025: 7 days after 1×10^2 FFU ZIKV FSS13025; for SFC/10^6 CD8+ T cells, MR766: 7 days after 1×10^2 FFU ZIKV MR766
Method: (§1) Two ZIKV strains, MR766 (Uganda, 1947) and FSS13025 (Cambodia, 2010), were obtained from the World Reference Center for Emerging Viruses and Arboviruses (WRCEVA). The mouse-adapted DENV2 strain S221 is a triple-plaque purified clone derived from DENV2 D2S1038. Both ZIKV and DENV2 were amplified in C6/36 mosquito cells, and viral titers were measured using baby hamster kidney (BHK)-21 cell-based focus forming assay (FFA). For epitope screening, 5-week old mice (female or male) were infected retro-orbitally (R.O.) with either 1×102 FFU of ZIKV FSS13025 or ZIKV MR766, or 2×10^4 FFU of DENV2 S221 in 200 μl 10% FBS/PBS. Seven days after infection, CD8^+ T cells were isolated from splenocytes and used for ELISPOT assay, while the splenocytes were directly used for ICS assay. Additionally, 5-week old mice were inoculated I.P. with 2×10^3 FFU of DENV2 S221 for 4 weeks.
CD8^+ T cells were isolated from splenocytes using magnetic bead positive selection (Miltenyi Biotec, Germany) 7 days after virus infection. 2×10^5 CD8^+ T cells were stimulated with 1×10^5 LPS-blasts loaded with 10 μg of individual peptide in 96-well flat-bottom plates (IMMOBILON™-P; Millipore, Bedford, Mass.) that were coated with anti-IFNγ mAb (clone AN18; Mabtech, Stockholm, Sweden) in triplicate. Concanavalin A (ConA) was used as positive control. After 20 hours of incubation, biotinylated anti-mouse IFNγ mAb (R4-6A2; Mabtech), followed by ABC peroxidase (Vector Laboratories, Burlingame, Calif., USA) and then 3-amino-9-ethylcarbazole (Sigma-Aldrich, St. Louis, Mo., USA) were added into the wells. […] A peptide inducing a magnitude of >500 SFCs/10^6 CD8^+ T cells was considered as an immunodominant peptide.
Two independent experiments performed in triplicate were averaged and the error bars represent the SEM. The data are expressed as the mean number of spot forming cells (SFC) per 10^6 CD8^+ T cells. The criteria for positivity were net SFC per 10^6 cells of >20, and a stimulation index of >2.0 when compared with the negative control. Dotted lines represent the cutoff value. * Indicates a positive response. […] ConA denotes Concanavalin A.

[2] = tested on: CD3+CD8+ T cells; experiment: IFNγ ICS, ZIKV-infected Ifnar-/- HLA-B*0702 transgenic mice; settings: HLA-B*0702 mice; for % IFNγ+ CD8+ T cells, MR766: 7 days after ZIKV MR766, ICS
Method: as §1
Spleens were harvested from virus-infected, mock-immunized, or peptide-immunized mice. 1×10^6 splenocytes were plated in each well of 96-well U-bottom plates and stimulated with individual peptide (10 μg crude peptide or 1 μg pure peptide per well) for 6 hours. Five hours before the end of incubation, Brefeldin A (GolgiPlug; BD Biosciences) and PE-conjugated anti CD107a mAb (clone 1D4B, eBioscience) were added to the cells. Splenocytes stimulated with PMA-ionomycin were used as the positive control, while cells without any stimulation were the negative control. […] Samples were run using an LSR™ II (BD Biosciences) and analyzed using FLOWJO™ software X 10.0.7 (Tree Star, Ashland, Oreg.).
Data represent the average of two independent experiments and are expressed as mean±SEM. *, P<0.05; **, P<0.01; Two-tailed Mann-Whitney test. P/I denotes PMA/ionomycin.

[3] = tested on: CD8+ T cells; experiment: IFNγ-ELISPOT of predicted H-2b-binding ZIKV peptides; settings: CD8+ T cells of mice infected with MR766 or FSS13025, day 7; positive: SFC per 10^6 CD8+ T cells ≥20 and stimulation index ≥2
Method: CD8^+ T cells were isolated by magnetic bead positive selection (Miltenyi Biotec, Germany). A total of 2×10^5 CD8^+ T cells were stimulated with 1×10^5 LPS-blast cells as antigen presenting cells (APCs) and 10 μg of individual ZIKV-derived peptide in 96-well flat-bottom plates (IMMOBILON™-P; Millipore, MA) coated with anti-mouse IFNγ monoclonal antibody (mAb) (clone AN18; Mabtech, Sweden) in triplicate. IFNγ-ELISPOT was performed as previously detailed (Elong Ngono et al., 2016). Positive peptides were those with a number of spot-forming cells (SFC) per 10^6 CD8^+ T cells ≥20 and a stimulation index ≥2 based on the negative control (DMSO). […]
The following results are with reference to FIG. 3A and FIG. 3B, where five-week-old LysMCre^+IFNAR^fl/fl were infected retro-orbitally with 10^4 FFU of ZIKV MR766 or FSS13025. […] A total of 244 peptides from ZIKV strains predicted to bind H-2Kb and H-2db with high affinity were screened. Two independent experiments for each ZIKV strain (n=5 mice for each experiment) were performed in triplicate per peptide. The data are expressed as the mean of spot forming cells (SFC) per 10^6 CD8^+ T cells, and error bars are represented as SEM. One-way ANOVA was used to compare the mean of each peptide with the control (DMSO) ([…]). […] The dotted line corresponds to the average amount of IFNγ produced by MOCK mice when stimulated with positive ZIKV-derived peptides (0.19% of IFNγ+CD8^+ T cells).

| Substance | SFC/10^6 CD8+ T cells, MR766 [1] [SFC/10^6 CD8+ T cells] | % IFNγ+ CD8+ T cells, MR766 [2] | Strains (ZIKV strain for which the peptide induced a positive T cell response, IFNγ-ELISPOT) [3] | also measured |
| --- | --- | --- | --- | --- |
| TPHWNNKEAL [FSS/MR-E233-242] | 218 | (0.3%) | – | SFC/10^6 CD8+ T cells, FSS13025 [1]: 158 SFC/10^6 CD8+ T cells |
| 11 (TGWSNWEEV) [compound 11] | – | – | MR766 | – |
| 3 (ISFATTLGV) [compound 3] | – | – | MR766 | – |
| 9 (SSLVNGVVRL) [compound 9] | – | – | MR766 | – |
| 24 (RSYCYEASI) [compound 24] | – | – | MR766/FSS | – |
| 27 (SVKKNLPFVM) [compound 27] | – | – | MR766/FSS | – |
| 23 (RMAVLGDTA) [compound 23] | – | – | MR766/FSS | – |
| 14 (YSLECDPAVI) [compound 14] | – | – | MR766 | – |
| TPNSPRAEA [FSS/MR-E170-178] | 155 | – | – | – |
| RPEADKVAAI [FSS/MR-NS3492-501] | 157 | – | – | – |
| 8 (SSIAARGYI) [compound 8] | – | – | MR766 | – |
| 25 (SNRDFVEGM) [compound 25] | – | – | MR766/FSS | – |
| RPASAWAIYA [FSS/MR-NS4B35-44] | 180 | (0.49%) | – | – |
| TPLTLIVAIIL [FSS/MR-NS4B105-115] | 163 | (0.4%) | – | – |
| RPAEGGKTVM [MR-NS5332-341] | 277 | (0.35%) | – | – |
| RVIDSRRCL [FSS/MR-NS3405-413] | 718 | (0.4%) | – | SFC/10^6 CD8+ T cells, FSS13025 [1]: 236 SFC/10^6 CD8+ T cells; % IFNγ+ CD8+ T cells, FSS13025 ([2]; 7 days after ZIKV FSS13025, ICS): (0.23%) |
| AAGKRGAAL [MR-NS3596-NS4A1] | 148 | – | – | – |
| SPRAEATL [FSS/MR-E173-180] | 108 | – | – | SFC/10^6 CD8+ T cells, FSS13025 [1]: 167 SFC/10^6 CD8+ T cells |
| FPDSNSPINI (FPDSNSPIM) [FSS/MR-NS3309-317] | 565 | (0.49%) | – | SFC/10^6 CD8+ T cells, FSS13025 [1]: 335 SFC/10^6 CD8+ T cells |
| LPSHSTRKL [FSS/MR-M4-12] | 398 | (0.28%) | – | SFC/10^6 CD8+ T cells, FSS13025 [1]: 235 SFC/10^6 CD8+ T cells |
